# According to patent publication US20120213706A1, “RECONSTITUTED TUMOR MICROENVIRONMENT FOR ANTICANCER DRUG DEVELOPMENT” (UNIVERSITY OF MEDICINE AND DENTISTRY OF NEW JERSEY, priority 2009, published 2012):
# Numbered stars: 1 amine (or outer) side, 2 acyl side, 3 side chain; on linkers, the order of the positions; unused ones are H or OH. Bridge positions count the residues as written; N and C are the ends. Square brackets hold non-standard residues; d marks the D form. Peptide text beside a SMILES is read from it. * marks the point of attachment. X1 = CC[C@H](C)[C@@H](N[*:1])[C@@H](O)CC(=O)O[C@H](C(=O)[C@H](C)C(=O)[*:2])C(C)C; NMeY = CN[C@@H](Cc1ccc(O)cc1)C(=O)O; dNMeL = CN[C@H](CC(C)C)C(=O)O; Pyruvoyl = CC(=O)C(=O)*
# Key:
# Format in all cases: cell-based
# Jak/Stat3 signaling = Jak/Stat3 signaling in tumor cells following treatment; conditions: following dehydrodidemnin B treatment
# [1] = test system: tumor cells in the reconstituted tumor microenvironment; experiment: growth of tumor cells in the reconstituted tumor microenvironment; conditions: tumor cells established within the reconstituted tumor microenvironment
# Description: The three cell system in Examples 1 and 2 is prepared and used to test standard chemotherapeutic agents for activity against cancer cell lines, such as the breast cancer cell lines MDAMB231 and MDAMB435 representing basal subtype and MCF7 and SKBR3 representing luminal subtype of breast cancer. Reconstitution is carried out in 96 well plates by co-culturing a fixed number of tumor cells and carcinoma-associated fibroblast-like cells plus TAMs either alone or admixed with differing amounts of cells representing cell types in tumor milieu. Tumor growth is monitored at these sites in accordance with the foregoing. As the tumor cells express luciferase, tumor growth is monitored even at early time points by bioluminescence imaging following injection of D-luciferin on a Kodak MM2000 Imager. Again, all the tumor cell lines tested in culture are tested in this assay.
# The reconstituted system is used to identify synergistic combinations using a panel of standard chemotherapeutic agents and Jak/STAT3 inhibitors. The Chou Talalay combination index analysis is used and the data analyzed using Calcusyn software (Biosoft ver 3). […] Growth of tumors is monitored by bioluminescence imaging using a KODAK […] Imaging station as described earlier. […]
# [2] = test system: FSP positive tumor stroma; experiment: FSP positive tumor stroma after treatment; conditions: fibroblast surface protein (FSP) as marker for tumor stroma
# tumor cells = experiment: tumor cell demise following treatment; conditions: following dehydrodidemnin B treatment
# Description: Accordingly, the instant invention is useful in drug screening assays for known and novel therapeutics targeting either the tumor cell or components of the tumor cell environment.
structure (smiles),measurement,setting,value
CC[C@H](C)[C@H]1NC(=O)[C@@H](NC(=O)[C@@H](CC(C)C)N(C)C(=O)[C@@H]2CCCN2C(=O)C(C)=O)[C@@H](C)OC(=O)[C@H](Cc2ccc(OC)cc2)N(C)C(=O)[C@@H]2CCCN2C(=O)[C@H](CC(C)C)NC(=O)[C@@H](C)C(=O)[C@H](C(C)C)OC(=O)C[C@@H]1O [dehydrodidemnin B] (Pyruvoyl-P[dNMeL]T[X1]LP[NMeY](Me); ester 3-C),Jak/Stat3 signaling in tumor cells,Jak/Stat3 signaling,inhibition of Jak/Stat3 signaling
same,growth of tumor cells,[1],can be inhibited
same,growth of tumor cells,[1]; listed as Dehydrodidemnin B,inhibited
same,FSP positive tumor stroma,[2],decreased FSP positive tumor stroma
same,fate of tumor cells after inhibition of Jak/Stat3 signaling,tumor cells,led to the demise of tumor cells
